Experimental data published in ChEMBL document CHEMBL6109134, “Discovery of AMG 193, an MTA-Cooperative PRMT5 Inhibitor for the Treatment of MTAP-Deleted Cancers” (J Med Chem, 2025).

Columns and labels:
[1] = Metabolic stability in mouse liver microsomes assessed as intrinsic clearance at 0.5 uM incubated for 40 mins in presence of NADPH; assay type: ADME, Microsome; conditions: read-out: CLH
PRMT5/MEP50 complex = PRMT5/MEP50 complex (Homo sapiens, UniProt O14744)
Description: Inhibition of PRMT5/MEP50 (unknown origin) preincubated with compound for 24 hrs in presence of SAM and MTA followed by Histone H4 (1-21)-Lys(Biotin) peptide addition and measured after 2 hrs by MTase-Glo reagent based assay

HCT-116 [2] = assay: Antiproliferative activity against MTAP-deleted human HCT-116 cells assessed as effect on cell viability incubated for 6 days by Celltiter-Glo luminescent cell viability assay; assay type: functional, cell-based; conditions: HCT-116, 144 h
HCT-116 [3] = assay: Antiproliferative activity against human HCT-116 cells harboring wildtype MTAP assessed as effect on cell viability incubated for 6 days by Celltiter-Glo luminescent cell viability assay; assay type: functional, cell-based; conditions: HCT-116, 144 h
in vivo = conditions: CD-1, mouse, iv, 1 mg/kg
human MDR1 (P-gp) = assay: Efflux ratio of permeability across basolateral to apical side over apical to basolateral side in MDCK cells transfected with human MDR1 in absence of elacridar; conditions: dog
CYP3A4 = CYP3A4 (Homo sapiens, UniProt P08684); assay: in vitro; conditions: human liver microsomes, probe midazolam
CYP3A4, sequence (P08684 whole entry): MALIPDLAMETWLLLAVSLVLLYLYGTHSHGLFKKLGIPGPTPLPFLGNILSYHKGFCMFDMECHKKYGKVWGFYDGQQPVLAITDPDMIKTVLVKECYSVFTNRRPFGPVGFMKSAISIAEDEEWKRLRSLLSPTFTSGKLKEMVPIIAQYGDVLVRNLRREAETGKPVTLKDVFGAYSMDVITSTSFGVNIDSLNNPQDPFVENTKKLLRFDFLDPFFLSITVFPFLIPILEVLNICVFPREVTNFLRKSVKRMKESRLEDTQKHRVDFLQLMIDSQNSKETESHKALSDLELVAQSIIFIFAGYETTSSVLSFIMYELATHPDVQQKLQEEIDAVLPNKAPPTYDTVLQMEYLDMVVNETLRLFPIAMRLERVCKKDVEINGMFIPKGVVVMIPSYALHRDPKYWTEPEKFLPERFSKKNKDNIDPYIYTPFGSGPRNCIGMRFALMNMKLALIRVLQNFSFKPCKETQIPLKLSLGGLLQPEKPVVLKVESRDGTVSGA

[4] = Oral bioavailability in CD-1 mouse at 5 mg/kg administered as 1% Tween 80, 2% HPMC, 97% water/methane sulfonic acid, pH 2.0 formulation; assay type: ADME, organism-based; conditions: in vivo
[5] = Metabolic stability in human liver microsomes assessed as intrinsic clearance at 0.5 uM incubated for 40 mins in presence of NADPH; assay type: ADME, Microsome; conditions: read-out: CLH
[6] = Protein binding in mouse plasma assessed as unbound fraction by ultracentrifugation; conditions: mouse plasma
[7] = target: T1, Nuclear receptor subfamily 1 group I member 2 (Homo sapiens, UniProt O75469); assay: Activation of human PXR in human HepG2 cells co-transfected with CYP3A4-luciferase at 10 uM incubated for 1 day relative to control; conditions: hepg2, 24 h
T1 sequence (O75469 whole entry): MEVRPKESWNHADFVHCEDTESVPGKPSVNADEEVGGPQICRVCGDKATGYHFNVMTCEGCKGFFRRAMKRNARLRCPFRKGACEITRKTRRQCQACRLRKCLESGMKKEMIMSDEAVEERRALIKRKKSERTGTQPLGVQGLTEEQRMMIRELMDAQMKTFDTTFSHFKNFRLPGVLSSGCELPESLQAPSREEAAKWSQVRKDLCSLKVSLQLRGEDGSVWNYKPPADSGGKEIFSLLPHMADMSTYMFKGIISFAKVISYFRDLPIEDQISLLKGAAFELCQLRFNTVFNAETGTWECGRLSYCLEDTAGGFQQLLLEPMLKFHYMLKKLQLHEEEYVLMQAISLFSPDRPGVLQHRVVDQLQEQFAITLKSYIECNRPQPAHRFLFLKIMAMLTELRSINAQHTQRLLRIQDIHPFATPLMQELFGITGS

[8] = Unbound clearance in CD-1 mouse at 1 mg/kg, iv; assay type: ADME, organism-based; conditions: in vivo
[9] = Clearance in CD-1 mouse at 1 mg/kg, iv; conditions: in vivo
[10] = Half-life in CD-1 mouse at 1 mg/kg, iv; assay type: ADME, organism-based; conditions: in vivo

PRMT5/MEP50 complex, sequence (O14744 whole entry): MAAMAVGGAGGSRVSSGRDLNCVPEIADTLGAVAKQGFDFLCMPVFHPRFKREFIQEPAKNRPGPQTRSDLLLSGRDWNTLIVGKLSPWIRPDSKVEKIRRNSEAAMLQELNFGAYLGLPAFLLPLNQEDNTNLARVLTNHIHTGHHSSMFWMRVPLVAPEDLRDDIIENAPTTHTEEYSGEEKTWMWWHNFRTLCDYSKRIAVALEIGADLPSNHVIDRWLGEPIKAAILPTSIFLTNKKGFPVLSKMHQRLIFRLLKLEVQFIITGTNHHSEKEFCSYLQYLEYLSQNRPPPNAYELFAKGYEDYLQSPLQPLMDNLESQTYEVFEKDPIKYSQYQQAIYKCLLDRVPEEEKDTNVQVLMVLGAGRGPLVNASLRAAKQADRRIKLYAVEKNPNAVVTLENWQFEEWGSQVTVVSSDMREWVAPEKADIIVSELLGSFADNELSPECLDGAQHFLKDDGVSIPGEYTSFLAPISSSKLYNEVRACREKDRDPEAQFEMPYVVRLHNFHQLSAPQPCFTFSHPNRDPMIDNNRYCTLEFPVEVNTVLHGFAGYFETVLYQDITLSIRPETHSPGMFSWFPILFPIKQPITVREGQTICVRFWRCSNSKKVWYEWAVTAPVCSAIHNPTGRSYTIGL
PRMT5/MEP50 complex, sequence (Q9BQA1 whole entry, further chain): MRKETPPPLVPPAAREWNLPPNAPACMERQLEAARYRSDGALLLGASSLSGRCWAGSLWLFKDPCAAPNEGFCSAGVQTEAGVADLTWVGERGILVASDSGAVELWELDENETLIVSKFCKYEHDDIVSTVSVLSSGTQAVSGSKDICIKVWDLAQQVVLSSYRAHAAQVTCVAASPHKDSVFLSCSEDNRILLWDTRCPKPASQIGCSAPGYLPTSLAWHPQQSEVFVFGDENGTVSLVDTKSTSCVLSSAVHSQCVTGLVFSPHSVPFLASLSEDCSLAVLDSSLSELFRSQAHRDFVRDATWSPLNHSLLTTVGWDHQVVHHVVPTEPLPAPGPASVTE

SMILES	microsomal CLint at 0.5 µM [1]	Ki (PRMT5/MEP50 complex)	IC50 (HCT-116 [2])	IC50 (HCT-116 [3])	Vd (in vivo)	efflux ratio (human MDR1 (P-gp))	inhibition at 30 min, 10 µM (CYP3A4)	bioavailability [4]	microsomal CLint at 0.5 µM [5]	fraction unbound [6]	Activity [7]	CL free [8]	clearance [9]	half-life [10]
C[C@H]1OCc2c1c(N)nc1cnc(C(=O)N3CCOC[C@@H]3c3ccc(C(F)(F)F)cc3)cc21	51 µL/min/mg	< 0.1 nM	64 nM	2.46 µM	1.8 L/kg	7	< 20%	82%	26 µL/min/mg	0.09	80%	8.8 L/h/kg	13.3 mL/min/kg	96 min
C[C@@H]1OCc2c1c(N)nc1cnc(C(=O)N3CCOC[C@@H]3c3ccc(C(F)(F)F)cc3)cc21	64 µL/min/mg	1.1 nM	4600 nM	> 50 µM		7	< 20%		49 µL/min/mg		< 20%			
C[C@H](c1ncccn1)N(Cc1ccc(C(F)(F)F)cn1)C(=O)c1ccc2nc(N)ccc2c1	62 µL/min/mg	0.6 nM	482 nM	0.743 µM		15	21%		< 14 µL/min/mg		17%			
Nc1nc2ccc(C(=O)N3CCOC[C@H]3c3ccc(C(F)(F)F)cn3)cc2c2c1COC2	52 µL/min/mg	182 nM	15500 nM	> 50 µM			< 20%		61 µL/min/mg		< 20%			
Nc1nc2cnc(C(=O)N3CCC(F)(F)C[C@@H]3c3ccc(C(F)(F)F)cc3)cc2c2c1COC2	87 µL/min/mg	0.4 nM	1090 nM	16.1 µM		5	< 20%		50 µL/min/mg		< 20%			
Nc1nc2ccc(C(=O)N3CCOC[C@@H]3c3ccc(Cl)cc3)cc2c2c1COC2	121 µL/min/mg	< 0.1 nM	399 nM	8.27 µM		8	< 20%		42 µL/min/mg		< 20%			
C[C@H](c1ncccn1)N(Cc1ccc(C(F)(F)F)cn1)C(=O)c1ccc2nc(N)c(Cl)cc2c1	105 µL/min/mg	0.2 nM	344 nM	5.11 µM		9	25%		< 14 µL/min/mg		46%			
Cc1cc2cc(C(=O)N(Cc3ccc(C(F)(F)F)cn3)CC(C)C)ccc2nc1N	148 µL/min/mg		431 nM	6.09 µM			52%		32 µL/min/mg		22%			
Nc1nc2ccc(C(=O)N3CCCC3c3ccc(C(F)(F)F)cn3)cc2c2c1COC2 (stereo unspecified)	72 µL/min/mg	184 nM	> 50000 nM	> 50 µM			< 20%		57 µL/min/mg		< 20%			
Nc1nc2ccc(C(=O)N3CCOCC3c3ccc(C(F)(F)F)cn3)cc2c2c1COC2 (racemic)	45 µL/min/mg	0.1 nM	809 nM	14.3 µM			< 20%		37 µL/min/mg		< 20%			
C[C@H](c1ncccn1)N(Cc1ccc(C(F)(F)F)cn1)C(=O)c1ccc2nc(N)c3c(c2c1)CCC3	563 µL/min/mg	< 0.1 nM	14 nM	0.129 µM		85	8%		274 µL/min/mg		73%			
Nc1nc2cnc(C(=O)N3CCCC[C@@H]3c3ccc(C(F)(F)F)cc3)cc2c2c1COC2	102 µL/min/mg	< 0.1 nM	112 nM	2.09 µM		4	< 20%		74 µL/min/mg		< 20%			
CC(=O)N1CCC(Nc2cc(C(=O)NC[C@H](O)CN3CCc4ccccc4C3)ncn2)CC1 [PEMRAMETOSTAT]			74 nM	0.068 µM										
Cc1cc2cc(C(=O)N(Cc3ccc(C(F)(F)F)cn3)[C@H](C)c3ncccn3)ncc2nc1N	46 µL/min/mg	0.1 nM	404 nM	7.95 µM		29	31%		14 µL/min/mg		11%			
C[C@H](c1ncccn1)N(Cc1ccc(C(F)(F)F)cn1)C(=O)c1cc2c3c(c(N)nc2cc1F)COC3	624 µL/min/mg	< 0.1 nM	10 nM	0.026 µM		31	≤ 10%		262 µL/min/mg		50%			
C[C@H](c1ncccn1)N(Cc1ccc(C(F)(F)F)cn1)C(=O)c1cc2c3c(c(N)nc2cn1)COC3	154 µL/min/mg	0.1 nM	202 nM	1.86 µM		61	4%		67 µL/min/mg		9%			
Nc1nc2ncc(C(=O)N3CCOCC3c3ccc(C(F)(F)F)cc3)cc2c2c1COC2 (stereo unspecified)	26 µL/min/mg	10.4 nM	4440 nM	> 10 µM		69	< 20%		17 µL/min/mg		< 20%			
Cc1cc2cc(C(=O)N(Cc3ccc(C(F)(F)F)cn3)[C@H](C)c3ncccn3)cnc2nc1N	14 µL/min/mg	0.1 nM	273 nM	3.49 µM		63	70%		14 µL/min/mg		6%			
C[C@H](c1ncccn1)N(Cc1ccc(C(F)(F)F)cn1)C(=O)c1cnc2nc(N)c3c(c2c1)COC3	17 µL/min/mg	< 0.1 nM	83 nM	0.409 µM			< 1%		22 µL/min/mg		1%			
